Source: patent publication US20170037425A1, “METHOD FOR IMPROVING PLANT TRAIT” (SHANGHAI INSTITUTES FOR BIOLOGICAL SCIENCES, CHINESE …, priority 2012, published 2017)
“Also recorded” adds a separate entry of the source.

Columns and labels:
Brassica [1] = test: Chlorophyll and pigment contents of transgenic Brassica leaves; assay type: in vivo, Brassica napus L.
Description: Chlorophylls and pigments were extracted from Brassica leaves with 80% acetone. Chlorophyll contents were measured as described by Arnon D J 1949, Plant Physiol 24:1-15. Carotenoid contents were measured as described by Niyogi et al., (1997), Proc. Natl. Acad. Sci. U.S.A. 94, 14162-14167.

rice = test: Phenotype of transgenic rice; assay type: in vivo
Description: Rice transformation was performed with method described in Liu Qiaoquan, Zhang Jingliu, Wang Zongyang, Hong Mengming and Gu Minghong (1998). A highly efficient transformation system mediated by Argrobacteriun tumefaciens in rice (Oryza sativa L.). Acta Phytophysiologica Sinica 24, 259-271.

[2] = Electron donation by pre-illuminated LEAT protein (NAD+/NADP+ reduction); assay type: biochemical
Description: FIG. 1. The effects of light on NAD^+ or NAPD^+ reduction by YFP.
It was reported that proteins such as GFP can function as electron donor to reduce the oxidized small compounds such as NAD^+, potassium ferricyanide, and some proteins such as cytochrome c, and FAD-containing proteins (Bogdanov A. M. et al, 2009, Nature Chemical Biology. 5:459-461), The invertors used E. coli to express and purify recombinant proteins. […] Quinone reduction under light was analyzed by monitoring the decrease of absorption at 436 nm.

Rubisco = Rubisco activity assay in transgenic Brassica leaves; assay type: in vivo, Brassica napus L.
Description: Ribulose-1,5-bisphosphate carboxylase/oxygenase (Rubisco) carboxylase activity assay: Soluble proteins were extracted from fresh leaves with extraction buffer (50 mM Tris-HCl pH 7.8, 1 mM EDTA, 50 mM NaCl, 2 mM β-Mercaptoethanol). The homogenate was centrifuged (12,000 g for 6 min at 4° C.) and the supernatant was used for Rubisco activity assay. Carboxylase activity of Rubisco was measured with ^14C-labelled method as described in (Wang Z Y, Snyder G W, Esau B D, Portis A R, Ogren W L (1992) Species-dependent variation in the interaction of substrate-bound ribulose-1,5-bisphosphate carboxylase/oxygenase (Rubisco) and Rubisco activase. Plant Physiology 100: 1858-1862).

Brassica [3] = test: Chlorophyll fluorescence and P700 oxidation-reduction in transgenic Brassica; assay type: in vivo, Brassica napus L.
Description: Electron transfer efficiency of leaves was measured by chlorophyll fluorescence. The change of chlorophyll fluorescence parameter was monitored with PAM-2000 fluorometer (Walz, Effeltrich, Germany). Electron transfer efficiency of leaves in response to light was measured after 30-min-dark adaption, Fo represents minimum PSII fluorescence after measuring light is turned on. Fm represents maximum PSII fluorescence after a saturating pulse of white light is turned on. The photochemical efficiency of PSII was calculated with the equation: ΦPSII=(Fm′−Fs)/Fm′ (Genty, B., Briantais, J. M., Baker, N. R. (1989). The relationship between the quantum yield of photosynthetic electron transport and quenching of Chl fluorescence. Biochimica et Biophysica Acta, 990, 87-92). The excitation pressure of chlorophyll was calculated with the equation: 1−qL=1−(Fm′−Fs)/(Fm′−Fo)×Fo′/Fs (Kramer, D. M., Johnson, G., Kiirats, O., Edwards, G. E. (2004) New fluorescence parameters for the determination of Q(A) redox state and excitation energy fluxes. Photosynthesis Research, 79, 209-218).
PAM chlorophyll fluorometer with ED-P700 DW-E light absorb unit was used to measure the change of the light absorb at 810-830 nm, then the change of oxidation-reduction state of P700 was obtained. […]

Brassica [4] = test: Millisecond-delayed light emission in transgenic Brassica leaves; assay type: in vivo, Brassica napus L.; details: white light and green light
Description: Measurements of millisecond-delayed light emission were carried out according to the method described in Chen et al., 2010 (Reversible association of ribulose-1,5-bisphosphate carboxylase/oxygenase activate with the thylakoid membrane depends upon the ATP level and pH in rice without heat stress. Journal of Experimental Botany 61: 2939-2950). Leaf samples with same size were treated in dark for same time and millisecond-delayed light emission was measured in situ. The leaf sample was illuminated with light passing through holes arranged on two rotating wheels, so that the measurement can be partitioned into consecutive cycles of 1 ms excitation by light followed by 4.6 ms darkness. The delayed light emission between 2.8 and 3.8 ms after every flash was recorded. The white light source was supplied by a halogen lamp, and the green light source was obtained by passing the white light source through a 530 nm filter.

[5] = system: etiolated Brassica hypocotyls; test: Respiration rate and oxygen evolution in etiolated hypocotyls of transgenic Brassica; assay type: in vivo, Brassica napus L.; details: etiolated hypocotyl
Description: 5-6 individual hypocotyls (5-6 cm in length) were collected from 1-week-old etiolated Brassica. The roots and cotyledons were detached and the hypocotyls were cut into 1 mm in length after weighing. The hypocotyls were put into the reaction vessel of the Clack-type oxygen electrode. The changes of dissolved oxygen content in solution over measuring time were recorded in dark or under light, respectively. Then 15 mM HgCl2 was added to block the respiration, and the change of dissolved oxygen content in solution was recorded. The difference between the respiration rate under light and in dark, and the oxygen evolution rate when respiration was blocked by HgCl2 was calculated.

Brassica [6] = test: State transition of leaves and thylakoids of transgenic Brassica; assay type: in vivo, Brassica napus L.
Description: State transition of leaves was measured using PAM-101/PDA100 fluorometer (Walz) as described in (L. Dietzel et al., The Plant Cell 23, 2964 (Aug. 1, 2011). PSII light with a PFD of 100 μmol m^−2s^−1 was provided by a Schott KL-1500 lamp (Walz). PSI light with a PFD of 6 μmol m^−2s^−1 was provided by PAM-101 (Walz). The half-time (t1/2) of state 1-state 2 transition was determined by calculate the decrease of the fluorescence after PSI light was switched off. The half-time for state 2-state 1 transition was determined following L. Dietzel et al., The Plant Cell 23, 2964 (Aug. 1, 2011). Thylakoids isolated from Brassica leaves were added into STN buffer supplemented with 10 mM ATP in a final concentration of 5-10 μg/ml. Half of thylakoids were illuminated and half of the thylakoids were treated in dark for 20-30 min in room temperature, respectively. Chlorophyll α fluorescence emission spectra were recorded at 77K (in liquid nitrogen) using F-4600 spectrofluorometer (Hitachi, Japan), The excitation wavelength was set at 435 nm. Data were the average of four measurements.

mCherry: red fluorescent protein, amino acid sequence SEQ ID NO: 2
accessory photosynthetic pigments (carotenoids) content (Brassica [1]): increased
chlorophyll content and ratio of Chl a/b (Brassica [1]): did not change
plant growth vs WT (rice): grow better than WT; also recorded: improve the growth
seed size and grain yield per plant vs WT (rice): increase
function as electron donor under light [2]: cannot continuously provide electrons under light
Rubisco activity and Rubisco activation state (Rubisco): increased
initial rate of P700^+ reduction (PSI cyclic electron transport) vs WT (Brassica [3]; transgenic Brassica leaves): much higher
photochemical efficiency of PSII (ΦPSII) (Brassica [3]; transgenic Brassica transferred from red+blue light to white light): increased
slow phase of millisecond delay light evolution (ms-DLE) vs WT (Brassica [4]): higher
net O2 evolution ([5]; O2 uptake inhibited by HgCl2, under light): observed significantly
O2 uptake rate under light vs WT ([5]; without HgCl2): significant lower
state transition of thylakoid membrane (Brassica [6]; transgenic Brassica grown under red+blue light, 77K fluorescence): no significant difference
percentage of state transition of thylakoid membrane (Brassica [6]; transgenic Brassica grown under white light, 77K fluorescence): increased
t0.5 for state transition between St1 and St2 (Brassica [6]; transgenic Brassica live leaf): significantly decreased
